Test results published in patent publication US20250001009A1, “THERAPY FOR PROGRAMMED CELL DEATH IN A SUBJECT TRANSPLANTED WITH A DONOR LIVER CARRYING THE PNPLA3 RS738409:G VARIANT” (priority 2021, published 2025).
“Also recorded” adds a separate entry of the source.

Key:
[1] = test system: donor hepatocytes positive for the PNPLA3 rs738409:G variant; assay: Lipid peroxidation (C11-BODIPY / MDA) in primary human hepatocytes; type: cell-based
Procedure: To evaluate the protective effects of deferoxamine, primary human hepatocytes were treated with 100 μM deferoxamine (DFO, Sigma-Aldrich, Saint-Louis, MO) for 24 hours in suspension. To evaluate the protective effects of GSH, primary human hepatocytes on collagen-coated plates were treated with 10 μM reduced L-glutathione (GSH, G4251, Sigma-Aldrich, Saint-Louis, MO) for 48 hours. Analysis of Lipid Peroxidation: A oxidation-sensitive probe C11-BODIPY (581/591) (Invitrogen, Carlsbad, CA) was used to evaluate lipid peroxidation under a fluorescence microscope. Untreated hepatocytes were prepared using a cytocentrifuge, incubated for 30 min with 10 μM C11-BODIPY, and washed with PBS. Cultured cells were incubated with 10 μM C11-BODIPY dissolved in culture media for 30 min at 37° C. and washed with PBS. The fluorescent signal was evaluated 3 hours after induction of ferroptosis. Malondialdehyde (MDA) is a natural biproduct of lipid peroxidation and MDA quantification is used as marker for lipid peroxidation. The MDA content in primary human hepatocytes was quantified using a commercially available kit from Sigma-Aldrich (Sigma-Aldrich, Saint-Louis, MO). Cryopreserved primary human hepatocytes were pelleted and analyzed directly or were cultured for 3 hours in suspension before the analysis. […] The MDA-TBA adduct was quantified using fluorometric detection (ex/em=430 nm/590 nm).

[2] = test system: donor hepatocytes positive for the PNPLA3 rs738409:G variant; assay: Cell viability / survival (Alamar Blue) of primary human hepatocytes; type: cell-based
Procedure: To evaluate the protective effects of deferoxamine, primary human hepatocytes were treated with 100 μM deferoxamine (DFO, Sigma-Aldrich, Saint-Louis, MO) for 24 hours in suspension. To evaluate the protective effects of GSH, primary human hepatocytes on collagen-coated plates were treated with 10 μM reduced L-glutathione (GSH, G4251, Sigma-Aldrich, Saint-Louis, MO) for 48 hours. Cell Viability Measurements: Cell viability was assessed in 96-well format using Alamar Blue (Invitrogen, Carlsbad, CA) absorbance (570 nm/600 nm) measured on a synergy HTX microplate reader (Biotek, Winooski, VT) 24 hours after ferroptosis induction. Post thaw viability of primary human hepatocytes was evaluated by Trypan blue dye exclusion counting using a Countess 3 automated cell counter (Invitrogen, Carlsbad, CA).

[3] = test system: donor hepatocytes positive for the PNPLA3 rs738409:G variant; assay: Mitochondrial shape by transmission electron microscopy; type: cell-based, human; details: in the presence of FINO2
Procedure: To evaluate the protective effects of deferoxamine, primary human hepatocytes were treated with 100 μM deferoxamine (DFO, Sigma-Aldrich, Saint-Louis, MO) for 24 hours in suspension. To evaluate the protective effects of GSH, primary human hepatocytes on collagen-coated plates were treated with 10 μM reduced L-glutathione (GSH, G4251, Sigma-Aldrich, Saint-Louis, MO) for 48 hours. Transmission electron microscopy: Human hepatocytes in suspension were briefly centrifugated and washed with PBS solution. Samples were then fixed with 2.5% glutaraldehyde over night at 4° C. Fixed samples were processed by the Center for Biologic Imaging at the University of Pittsburgh, and treated with 1% osmium tetroxide and 1% potassium ferricyanide for 1 hour at room temperature. Samples were washed with PBS and dehydrated in a graded series of ethanol solution (30%, 50%, 70%, and 90% ethanol; 10 minutes each) and three 15-minute incubations in fresh 100% ethanol. Infiltration/embedding was done with three 1-hour incubations of epon. The last change of epon was removed and beam capsules filled with resin were inverted over relevant areas of the monolayers. […] Mitochondrial shape was evaluated as published previously using ImageJ (Merrill et al. in Techniques to Investigate Mitochondrial Function in Neurons, 123:31-48. Neuromethods. Springer New York, 2017).

N[C@@H](CCC(=O)N[C@@H](CS)C(=O)NCC(=O)O)C(=O)O [GSH, reduced L-glutathione]
lipid peroxidation ([1]; 10 μM reduced L-glutathione, 48 hours, collagen-coated plates): reduces lipid peroxidation; also recorded: decreased lipid peroxidation | survival ([2]; 10 μM reduced L-glutathione, 48 hours, collagen-coated plates, p=0.002): improves cell survival; also recorded: increased survival

CC1(CCO)CC2(CCC(C(C)(C)C)CC2)OO1 (stereo not drawn) [FINO2, (5α,8α)-8-(1,1-dimethylethyl)-3-methyl-1,2-dioxaspiro[4.5]decane-3-ethanol, reference compound]
lipid peroxidation ([1]; donor hepatocytes cultured in the presence of FINO2 (50 μM)): increased lipid peroxidation | donor hepatocyte survival ([2]; donor hepatocytes cultured in the presence of FINO2 (50 μM), 24 hours after ferroptosis induction): significant reduction in donor hepatocyte survival | mitochondrial shape [3]: changed from a rod shape to a spherical shape
